Results as given in paper PMC10663540, “Structure-based discovery of dual pathway inhibitors for SARS-CoV-2 entry” (Nature Communications, 2023).
Several values for one entry are separate records, joined by “and”; a condition that tells them apart may be missing. Equal entries are not always repeated. Where two headings read alike, the source gives them in different places.

Key:
[1] = system: SARS-CoV-2-S pseudotyped virus Omicron BA.2; experiment: microbe, parasite or virus in culture; type: cell-based
[2] = system: SARS-CoV-2-S pseudotyped virus Omicron BA.2.12.1; experiment: microbe, parasite or virus in culture; type: cell-based
[3] = system: SARS-CoV-2-S pseudotyped virus Omicron BA.4/BA.5; experiment: microbe, parasite or virus in culture; type: cell-based
[4] = system: Calu-3 cells; conditions: rep1-rep3
[5] = molecular target: T1, human CTSL (Homo sapiens, UniProt P07711); experiment: FRET enzymatic inhibition assay of CTSL (IC50 measurement); type: biochemical; conditions: Fig. 5c
T1 construct: made in house
T1 sequence (P07711 114-333): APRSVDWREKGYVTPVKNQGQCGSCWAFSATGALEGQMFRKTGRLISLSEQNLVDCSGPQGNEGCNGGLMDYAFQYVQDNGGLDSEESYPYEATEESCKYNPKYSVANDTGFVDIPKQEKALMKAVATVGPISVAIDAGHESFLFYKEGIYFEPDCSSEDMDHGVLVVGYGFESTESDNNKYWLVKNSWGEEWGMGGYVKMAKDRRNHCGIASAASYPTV

[6] = Severe acute respiratory syndrome coronavirus 2, Huh-7, 120 h, 212-148 20 μM, Fig. 5d
[7] = Severe acute respiratory syndrome coronavirus 2, Huh-7, read-out: Antiviral efficacy EC50 (95% CI)

Question: Which “Inhibition: BA.2/Huh-7” value ([1]; 212-148 0.00128 μM, Fig. 5d) does the source give for NC(N)=Nc1ccc(C(=O)OCCN2CCN(C(=O)N[C@@H](Cc3ccccc3)C(=O)N[C@H](/C=C/S(=O)(=O)c3ccccc3)CCc3ccccc3)CC2)cc1 [212-148] here?
Answer: 25.89% and 19.49%

Question: What about the “Inhibition: BA.2/Huh-7” value ([1]; 212-148 0.8 μM, Fig. 5d) of the same compound?
Answer: 91.14% and 94.17%

Question: What about the “Inhibition: BA.2/Huh-7” value ([1]; 212-148 4 μM, Fig. 5d) of the same compound?
Answer: 97.31% and 97.73%

Question: What about the “Inhibition: BA.2/Huh-7” value ([1]; 212-148 20 μM, Fig. 5d) of the same compound?
Answer: 84.53% and 89.27%

Question: What about the inhibition at 0.00128 µM ([1]; Severe acute respiratory syndrome coronavirus 2, Huh-7, 120 h, 212-148 0.00128 μM, Fig. 5d) of the same compound?
Answer: 38.3%

Question: And the inhibition at 0.8 µM ([1]; Severe acute respiratory syndrome coronavirus 2, Huh-7, 120 h, 212-148 0.8 μM, Fig. 5d)?
Answer: 99.7%

Question: What about the inhibition at 4 µM ([1]; Severe acute respiratory syndrome coronavirus 2, Huh-7, 120 h, 212-148 4 μM, Fig. 5d) of the same compound?
Answer: 83.7%

Question: And the inhibition at 20 µM [1, 6]?
Answer: 97.9%

Question: And the EC50 [1, 7]?
Answer: 5700 pM

Question: What about the “content remaining (LC-MS)” value (after two days in the medium that contains FBS, 125 μM) of the same compound?
Answer: more than 50%

Question: What about the “stability compared (in words)” value (same conditions as cell assay media) of the same compound?
Answer: more stable than nafamostat

Question: What about the “Inhibition: BA.2.12.1/Huh-7” value ([2]; 212-148 0.0002 μM, Fig. 5d) of the same compound?
Answer: 25.45% and 41.55%

Question: And the “Inhibition: BA.2.12.1/Huh-7” value ([2]; 212-148 0.002 μM, Fig. 5d)?
Answer: 72.96% and 74.23%

Question: And the “Inhibition: BA.2.12.1/Huh-7” value ([2]; 212-148 0.02 μM, Fig. 5d)?
Answer: 77.85% and 80.42%

Question: What about the “Inhibition: BA.2.12.1/Huh-7” value ([2]; 212-148 0.2 μM, Fig. 5d) of the same compound?
Answer: 82.33% and 85.32%

Question: And the “Inhibition: BA.2.12.1/Huh-7” value ([2]; 212-148 2 μM, Fig. 5d)?
Answer: 85.90% and 86.81%

Question: And the “Inhibition: BA.2.12.1/Huh-7” value ([2]; 212-148 20 μM, Fig. 5d)?
Answer: 92.77% and 92.47%

Question: And the inhibition at 0.0002 µM ([2]; Severe acute respiratory syndrome coronavirus 2, Huh-7, 120 h, 212-148 0.0002 μM, Fig. 5d)?
Answer: 26.2%

Question: And the inhibition at 0.002 µM ([2]; Severe acute respiratory syndrome coronavirus 2, Huh-7, 120 h, 212-148 0.002 μM, Fig. 5d)?
Answer: 70.2%

Question: What about the inhibition at 0.02 µM ([2]; Severe acute respiratory syndrome coronavirus 2, Huh-7, 120 h, 212-148 0.02 μM, Fig. 5d) of the same compound?
Answer: 75.2%

Question: What about the inhibition at 0.2 µM ([2]; Severe acute respiratory syndrome coronavirus 2, Huh-7, 120 h, 212-148 0.2 μM, Fig. 5d) of the same compound?
Answer: 82.3%

Question: What about the inhibition at 2 µM ([2]; Severe acute respiratory syndrome coronavirus 2, Huh-7, 120 h, 212-148 2 μM, Fig. 5d) of the same compound?
Answer: 86.3%

Question: And the inhibition at 20 µM [2, 6]?
Answer: 91.6%

Question: What about the EC50 [2, 7] of the same compound?
Answer: 400 pM

Question: And the “Inhibition: BA.4.5/Huh-7” value ([3]; 212-148 2e-5 μM, Fig. 5d)?
Answer: 20.50% and 13.32% and 20.61%

Question: And the “Inhibition: BA.4.5/Huh-7” value ([3]; 212-148 0.0002 μM, Fig. 5d)?
Answer: 32.55% and 30.98%

Question: And the “Inhibition: BA.4.5/Huh-7” value ([3]; 212-148 0.002 μM, Fig. 5d)?
Answer: 62.17% and 52.89%

Question: And the “Inhibition: BA.4.5/Huh-7” value ([3]; 212-148 0.02 μM, Fig. 5d)?
Answer: 82.60% and 83.49%

Question: And the “Inhibition: BA.4.5/Huh-7” value ([3]; 212-148 0.2 μM, Fig. 5d)?
Answer: 89.43% and 91.48%

Question: What about the “Inhibition: BA.4.5/Huh-7” value ([3]; 212-148 2 μM, Fig. 5d) of the same compound?
Answer: 89.92% and 91.92%

Question: And the “Inhibition: BA.4.5/Huh-7” value ([3]; 212-148 20 μM, Fig. 5d)?
Answer: 95.01% and 96.39%

Question: What about the inhibition at 0.0002 µM ([3]; Severe acute respiratory syndrome coronavirus 2, Huh-7, 120 h, 212-148 0.0002 μM, Fig. 5d, read-out: Inhibition: BA.4.5/Huh-7) of the same compound?
Answer: 43.8%

Question: And the inhibition at 0.002 µM ([3]; Severe acute respiratory syndrome coronavirus 2, Huh-7, 120 h, 212-148 0.002 μM, Fig. 5d, read-out: Inhibition: BA.4.5/Huh-7)?
Answer: 63.5%

Question: What about the inhibition at 0.02 µM ([3]; Severe acute respiratory syndrome coronavirus 2, Huh-7, 120 h, 212-148 0.02 μM, Fig. 5d, read-out: Inhibition: BA.4.5/Huh-7) of the same compound?
Answer: 84.4%

Question: What about the inhibition at 0.2 µM ([3]; Severe acute respiratory syndrome coronavirus 2, Huh-7, 120 h, 212-148 0.2 μM, Fig. 5d, read-out: Inhibition: BA.4.5/Huh-7) of the same compound?
Answer: 86.9%

Question: What about the inhibition at 2 µM ([3]; Severe acute respiratory syndrome coronavirus 2, Huh-7, 120 h, 212-148 2 μM, Fig. 5d, read-out: Inhibition: BA.4.5/Huh-7) of the same compound?
Answer: 86.8%

Question: And the inhibition at 20 µM ([3]; Severe acute respiratory syndrome coronavirus 2, Huh-7, 120 h, 212-148 20 μM, Fig. 5d, read-out: Inhibition: BA.4.5/Huh-7)?
Answer: 92.5%

Question: What about the EC50 [3, 7] of the same compound?
Answer: 400 pM

Question: And the Cytotoxicity ([4]; 0.15 μM)?
Answer: 2.30% and 2.49% and 2.76%

Question: And the Cytotoxicity ([4]; 0.46 μM)?
Answer: 5.33% and 5.48% and 5.69%

Question: And the Cytotoxicity ([4]; 4.1 μM)?
Answer: -1.17% and -0.96% and -0.67%

Question: And the Cytotoxicity ([4]; 12.3 μM)?
Answer: 0.51% and 0.76% and 1.02%

Question: And the Cytotoxicity ([4]; 111.1 μM)?
Answer: -1.18% and -0.95% and -0.65%

Question: And the Cytotoxicity ([4]; 333.3 μM)?
Answer: 32.20% and 32.35% and 32.61%

Question: What about the Cytotoxicity ([4]; 1000 μM) of the same compound?
Answer: 84.78% and 84.85% and 84.92%

Question: And the “Inhibition: CTSL” value ([5]; 212-148 0.0152588 nM)?
Answer: 2.91% and -0.21% and -1.28% and 1.99%

Question: What about the “Inhibition: CTSL” value ([5]; 212-148 0.0305176 nM) of the same compound?
Answer: 3.33% and -0.12% and 1.43% and -2.77%

Question: What about the “Inhibition: CTSL” value ([5]; 212-148 0.0610352 nM) of the same compound?
Answer: -0.57% and 0.90% and 3.39% and -2.15%

Question: And the “Inhibition: CTSL” value ([5]; 212-148 0.12207 nM)?
Answer: 9.01% and 2.36% and 0.90% and 3.32%

Question: And the “Inhibition: CTSL” value ([5]; 212-148 0.244141 nM)?
Answer: 8.36% and 6.61% and 10.35%

Question: What about the inhibition at 0.000244141 µM ([5]; 212-148 0.244141 nM) of the same compound?
Answer: 6.2%

Question: What about the “Inhibition: CTSL” value ([5]; 212-148 0.488281 nM) of the same compound?
Answer: 11.98% and 10.08% and 8.64%

Question: And the inhibition at 0.000488281 µM ([5]; 212-148 0.488281 nM)?
Answer: 11.8%

Question: And the “Inhibition: CTSL” value ([5]; 212-148 0.976562 nM)?
Answer: 27.34% and 25.99% and 25.66%

Question: And the inhibition at 0.000976562 µM ([5]; 212-148 0.976562 nM)?
Answer: 23.1%

Question: What about the “Inhibition: CTSL” value ([5]; 212-148 1.95312 nM) of the same compound?
Answer: 44.61% and 46.51% and 45.72%

Question: And the inhibition at 0.00195312 µM ([5]; 212-148 1.95312 nM)?
Answer: 48%

Question: What about the “Inhibition: CTSL” value ([5]; 212-148 3.90625 nM) of the same compound?
Answer: 71.05% and 70.57% and 71.92%

Question: And the inhibition at 0.00390625 µM ([5]; 212-148 3.90625 nM)?
Answer: 73.5%

Question: What about the “Inhibition: CTSL” value ([5]; 212-148 7.8125 nM) of the same compound?
Answer: 92.07% and 92.09% and 91.52%

Question: And the inhibition at 0.0078125 µM ([5]; 212-148 7.8125 nM)?
Answer: 91.9%

Question: And the “Inhibition: CTSL” value ([5]; 212-148 15.625 nM)?
Answer: 98.41% and 99.33% and 98.88%

Question: And the inhibition at 0.015625 µM ([5]; 212-148 15.625 nM)?
Answer: 98.4%

Question: And the “Inhibition: CTSL” value ([5]; 212-148 31.25 nM)?
Answer: 100.04% and 99.69% and 99.78%

Question: And the inhibition at 0.03125 µM ([5]; 212-148 31.25 nM)?
Answer: 99.8%

Question: What about the “Inhibition: CTSL” value ([5]; 212-148 62.5 nM) of the same compound?
Answer: 100.21% and 99.82% and 99.78%

Question: What about the inhibition at 0.0625 µM ([5]; 212-148 62.5 nM) of the same compound?
Answer: 100%

Question: What about the “Inhibition: CTSL” value ([5]; 212-148 125 nM) of the same compound?
Answer: 100.33% and 100.36% and 100.30%

Question: What about the inhibition at 0.125 µM ([5]; 212-148 125 nM) of the same compound?
Answer: 100%
